US20160312311A1, “MARKERS FOR ISOCITRATE DEHYDROGENASE INHIBITORS” (NOVARTIS AG, priority 2013, published 2016)

Experiments:
Assay type in all cases: cell-based
HCT116 IDH1/2 WT cells = assay: H3K9me2 Western blot after exogenous 2-HG treatment; conditions: 10 mM 2-HG or 1 mM Cell-Permeable 2-HG for about 30 days
Description: In order to evaluate the effect of IDH1 mutations, IDH2 mutations and 2-HG on H3K9me2, HCT116 colorectal cells that were engineered to endogenously express various clinically relevant mutations in IDH1 or IDH2 (Horizon Discovery, Cambridge, UK) were assayed for changes in H3K9me2 levels. […] HCT116 IDH1/2 WT cells were also exogenously treated with 10 mM 2-HG or 1 mM Cell-Permeable 2-HG for about 30 days. All cells were grown in McCoy's 5A Media (Life Technologies, Carlsbad, Calif.) containing 10% Fetal Bovine Serum (Hyclone, Logan, Utah). At least 10^6 cells per line were harvested and subject to a Histone Acid Extraction® Protocol (Abcam, Cambridge, Mass.). Cells in culture were rinsed with PBS and detached using 0.25% trypsin. Trypsin was deactivated using fresh media and the sample was spun down at 1000 rpm for 5 minutes. Media was aspirated and samples were kept at −80° C. until ready for processing.
Cells were washed twice in ice-cold PBS supplemented with 5 mM sodium butyrate (Sigma-Aldrich, St. Louis Mo.). Cells were then resuspended in Triton Extraction Buffer (TEB: PBS containing 0.5% TritonX 100(v/v), 2 mM phenylmethylsulfonyl fluoride (PMSF), 0.02% (w/v) sodium azide) also supplemented with 5 mM sodium butyrate at density of 10^7 cells per mL. […] Histone extracts were subsequently quantified using a detergent compatible (“DC”) protein assay kit (BioRad, Hercules, Calif.). […]

[1] = tested on: SNU1079 cholangiocarcinoma cells (IDH1-R132C/WT), IDH2-WT background; assay: H3K9me2 Western blot in SNU1079 expressing IDH2 WT; conditions: doxycycline-induced IDH2 WT, day 6
Description: (§1) As disclosed in Example 4, compound 162 is specific for IDH1 mutations. As such, it is a useful compound to determine the contribution of IDH2 to H3K9me2 methylation levels. SNU1079 cholangiocarcinoma cells (KCLB) contain an IDH1 mutation (IDH1-R132C/WT). These cells were cultured in RPMI-1640 (Life Technologies, Carlsbad, Calif.) supplemented with 1% Sodium Pyruvate and 10% Tet-free fetal bovine serum (Hyclone, Logan Utah). Full length IDH2 cDNAs (WT or R172K) were cloned into pLKO-TREX-neomycin for lentiviral transduction (Wee et al., Proc. Nat. Acad. Sci. U.S.A. 2008 105(35):13057-13062). Lentiviral particles were produced by co-transfecting the cDNA expression vector of interest with packaging plasmids Δ8.9 and VSVG into 293T cells (ATCC CRL-11268) using Transit293® transfection reagent (Mirus, Madison, Wis.). Lentiviral supernatants were then used to spin-infect SNU1079 cells in the presence of 8 μg/mL polybrene. Cells recovered overnight in fresh medium and were then selected and continually cultured in appropriate antibiotics.
(§2) SNU1079 stably expressing IDH2 isoforms were co-treated with doxycycline (100 ng/mL) final concentration to induce IDH2 (WT or R172K) expression. These lines were treated with DMSO or doses of compound 162. Cells were harvested on day 6 post-treatment and processed for histones as described above. […]

[2] = tested on: HCT116 cells (wild type for IDH1 and IDH2); assay: H3K9me2 Western blot in IDH1 and IDH2 wild type cell line; conditions: increasing concentrations, 3-6 days
Description: In order to examine the role of H3K9me2 levels as marker, cells that were wild type for IDH1 and IDH2, for example HCT116 cells, were treated with a compound that inhibits IDH1 mutant activity (compound 162). HCT116 colon cells cancer cells (ATCC CCL-247) were cultured in McCoy's 5A (Life Technologies, Carlsbad, Calif.) supplemented with 10% fetal bovine serum (Hyclone, Logan Utah). These cells were treated for 3-6 days with increasing concentrations of compound 162 or DMSO vehicle as control.
Histone extracts were prepared with NuPAGE® 4×LDS Sample Buffer (Life Technologies, Carlsbad, Calif.) and heated to 70° C. for 10 minutes. Samples were run on NuPage® Novex 4-12% Bis-Tris gel (Life Technologies, Carlsbad, Calif.) using MES buffer (Life Technologies, Carlsbad, Calif.). The gel was then transferred onto nitrocellulose membrane using the iBlot system (Life Technologies, Carlsbad Calif.) on setting P3 for 7 minutes. The antibodies used are shown above in Table 1.

[3] = tested on: IDH1-R132C mutant HT1080 sarcoma cells; assay: H3K9me2 immunohistochemistry with quantitative image analysis; conditions: 5 μM, 6 days
Description: In order to determine if changes in H3K9me2 level could be detected via immunohistochemistry, HT1080 cell lines were plated onto […] tissue culture flasks (Corning, Cat #3001, Tewksbury, Mass.). The cells were treated with DMSO or 5 μM compound 162 and incubated for 6 days, with media change at day 3. HT1080 cell pellets were harvested by removing media, washing with 1×PBS, and adding 10 ml of 10% neutral buffer formalin. Cells were then scraped from the bottom of the flask and placed in a 50 ml conical tube, filled to ˜50 ml with 10% neutral buffered formalin, and allowed to fix for 1-2 hours. […]
FFPE slides were cut at 3.5 μm thickness, mounted on charged slides (Thermo-Scientific Colormark® Plus Cat #CM-5951, West Palm Beach, Fla.) and baked at 60° C. for 1 hour. […] The secondary antibody, Ventana OmniMap® HRP-conjugated anti-mouse (Ventana Cat #760-4310 Tucson, Ariz.), was incubated for 4 minutes and detected with Ventana's ChromoMap® DAB detection kit (Ventana Cat #760-159, Tucson, Ariz.). […]
Coverslipped slides were scanned with Aperio ScanScope ® XT (Vista, Calif.) for quantitative digital image analysis. Digital images were analyzed with Visiopharm® (Hoersholm, Denmark) image analysis software. The nuclear detection algorithm detected both hematoxylin and DAB-stained nuclei in the image. […]

HT1080 and SNU1079 cells = assay: Histone profiling by LC-MS/MS, compound 162 vs. DMSO; conditions: 3 μM, 6 days
Description: (§3) Also profiled were three endogenously mutant cell lines upon modulation of the target by chemical or genetic means in order to evaluate other lysine methylation marks. We used histone acid extracts (as described in Example 1) from HT1080 and SNU1079 cells treated with 3 μM compound 162 or DMSO control for 6 days, as well as SW1353 cells that have been induced (100 ng/mL doxycycline) with IDH2 specific shRNA (shIDH2-891 or shNTC) for 6 days. Histones were further enriched with ActiveMotif® Histone purification mini kit (ActiveMotif Inc., Carlsbad, Calif.)
(§4) The purified histones were desalted by off line reversed phase chromatography on an 1200 Agilent tower (Agilent, Santa Clara, Calif.) using a Jupiter® 5 μm C4 300 Å Column 150×2 mm (Phenomenex, Torrance, Calif.). The resulting peak area was used to estimate concentration against the peak area of histones of known concentration. The desalted histones were lyophilyzed prior to lysine derivatization. […]
(§5) The data obtained via mass spectrometry was interpreted using Mascot Distiller® (Matrix Science, Boston, Mass.) for identification followed by manual verification. The peak area obtained from the data acquired was processed using Skyline Software® (v1.4.0.422 University of Washington, Seattle, Wash.) for quantitation of the peptides bearing post translational modifications.

[4] = tested on: SNU1079 cholangiocarcinoma cells (IDH1-R132C/WT), IDH2-R172K background; assay: H3K9me2 Western blot in SNU1079 expressing IDH2-R172K; conditions: doxycycline-induced IDH2-R172K, day 6
Description: as §1, §2

[5] = tested on: SW1353 chondrosarcoma cells (IDH2-R172S/WT); assay: H3K9me2 Western blot in IDH2 mutant SW1353 cells upon IDH2 knockdown; conditions: SW1353 stable lines, doxycycline 100 ng/mL, 6 days
Description: SW1353 chondrosarcoma cells (ATCC HTB-94) contain an activating mutation in IDH2 (IDH2-R172S/WT). These cells were cultured in RPM-1640 (Life Technologies, Carlsbad, Calif.) supplemented with 1% sodium pyruvate and 10% Tet-Free fetal bovine serum. IDH2 shRNAs were cloned into pLKO-Tet-ON-puromycin vectors. All shRNAs were validated to give sufficient knockdown of target as judged by RNA, protein, and reduced 2-HG production.
Lentiviral particles were produced by co-transfecting the shRNA plasmid of interest with packaging plasmids Δ8.9 and VSVG into 293T cells using Transit293® transfection reagent (Mirus, Madison, Wis.). Lentiviral supernatants were then used to spin-infect HT-1080 cells in the presence of 8 μg/mL polybrene. Cells recovered overnight in fresh medium and were then selected and continually cultured in appropriate antibiotics.
SW1353 stable lines were cultured with and without doxycycline (100 ng/mL final concentration) for 6 days in the absence of selection. At day 6, cells were lifted using trypsin and histones were extracted as previously described.
Histone extracts were prepared with NuPAGE® 4×LDS Sample Buffer (Life Technologies, Carlsbad, Calif.) and heated to 70° C. for 10 minutes. Samples were run on NuPage® Novex 4-12% Bis-Tris gel (Life Technologies, Carlsbad, Calif.) using MES buffer (Life Technologies, Carlsbad, Calif.). […]

SW1353 cells = assay: Histone profiling by LC-MS/MS, IDH2 shRNA vs. non-targeting control shRNA; conditions: doxycycline 100 ng/mL, 6 days, vs. shNTC
Description: as §3, §4, §5

## O=C(O)CCC(O)C(=O)O (stereo not drawn) [2-HG, 2-hydroxyglutarate]
HCT116 IDH1/2 WT cells
  H3K9me2 levels (Western blot, FIG. 1B): sufficient to increase H3K9me2 levels

## CC(C)[C@H]1COC(=O)N1c1ccnc(N[C@@H](C)c2ccc(Oc3ccccc3)cc2)n1 [compound 162, (S)-4-isopropyl-3-(2-(((S)-1-(4 phenoxyphenyl)ethyl)amino)pyrimidin-4-yl)oxazolidin-2-one]
[1]
  H3K9me2 level (Western blot, FIG. 5 left panel): able to reduce the H3K9me2 level in a dose-dependent manner
[2]
  H3K9me2 levels (Western blot, FIG. 4): does not affect H3K9me2 levels
[3]
  H3K9me2 levels by immunohistochemistry (FIG. 6A): decreases levels H3K9me2
[3]; entire cross section, vs DMSO
  decrease in H3K9me2 levels, quantitative image analysis (FIG. 6B): 27%
HT1080 and SNU1079 cells
  H3K9me0 level, change from control (mass spectrometry, FIG. 7): H3K9me0 level increases
  H3K9me2 level, change from control (mass spectrometry, FIG. 7): H3K9me2 level reduction
[4]
  H3K9me2 level (Western blot, FIG. 5 right panel): the reduction of H3K9me2 level is attenuated

## shIDH2-309: IDH2 specific shRNA, 5′ GTGGACATCCAGCTAAAGTAT 3′ (SEQ ID NO: 9)
[5]
  H3K9me2 methylation level (Western blot, FIG. 3): H3K9me2 methylation level is reduced

## shIDH2-891: IDH2 specific shRNA, 5′ ATCTTTGACAAGCACTATAAG 3′ (SEQ ID NO: 10)
[5]
  H3K9me2 methylation level (Western blot, FIG. 3): H3K9me2 methylation level is reduced
SW1353 cells
  H3K9me0 level, change from control (mass spectrometry, FIG. 7): H3K9me0 level increases
  H3K9me2 level, change from control (mass spectrometry, FIG. 7): H3K9me2 level reduction
